From patent US20200339625A1, “NOVEL RADIOMETAL-BINDING COMPOUNDS FOR DIAGNOSIS OR TREATMENT OF PROSTATE SPECIFIC MEMBRANE ANTIGEN-EXPRESSING CANCER” (PROVINCIAL HEALTH SERVICES AUTHORITY, priority 2017, published 2020)

Target: T1, PSMA on LNCaP cells (Homo sapiens, UniProt Q04609)
T1 construct: endogenous in cells; host or cells: LNCaP prostate cancer cells
Assay: In vitro competition binding assay (displacement of 18F-DCFPyL)
Settings: inhibition of 18F-DCFPyL binding to PSMA on LNCaP cells, n=3
Method: 1.14 In Vitro Competition Binding Assay
In vitro competition binding assays were conducted as previously reported using LNCaP prostate cancer cells and ^18F-DCFPyL as the radioligand. ^18 Briefly, LNCaP cells (400,000/well) were plated onto a 24-well poly-D-lysine coated plate for 48 h. Growth media was removed and replaced with HEPES buffered saline (50 mM HEPES, pH 7.5, 0.9% sodium chloride) and the cells were incubated for 1 h at 37° C. ^18F-DCFPyL (0.1 nM) was added to each well (in triplicate) containing various concentrations ([…]) of tested compounds (Lu-PSMA-617 or Lu-HTK01169). Non-specific binding was determined in the presence of 10 μM non-radiolabeled DCFPyL. The assay mixtures were further incubated for 1 h at 37° C. with gentle agitation. Then, the buffer and hot ligand were removed, and cells were washed twice with cold HEPES buffered saline. To harvest the cells, 400 μL of 0.25% trypsin solution was added to each well. Radioactivity was measured on a PerkinElmer (Waltham, Mass.) Wizard2 2480 automatic gamma counter. Nonlinear regression analyses and Ki calculations were performed using the GraphPad Prism 7 software.

T1 sequence (Q04609 whole entry): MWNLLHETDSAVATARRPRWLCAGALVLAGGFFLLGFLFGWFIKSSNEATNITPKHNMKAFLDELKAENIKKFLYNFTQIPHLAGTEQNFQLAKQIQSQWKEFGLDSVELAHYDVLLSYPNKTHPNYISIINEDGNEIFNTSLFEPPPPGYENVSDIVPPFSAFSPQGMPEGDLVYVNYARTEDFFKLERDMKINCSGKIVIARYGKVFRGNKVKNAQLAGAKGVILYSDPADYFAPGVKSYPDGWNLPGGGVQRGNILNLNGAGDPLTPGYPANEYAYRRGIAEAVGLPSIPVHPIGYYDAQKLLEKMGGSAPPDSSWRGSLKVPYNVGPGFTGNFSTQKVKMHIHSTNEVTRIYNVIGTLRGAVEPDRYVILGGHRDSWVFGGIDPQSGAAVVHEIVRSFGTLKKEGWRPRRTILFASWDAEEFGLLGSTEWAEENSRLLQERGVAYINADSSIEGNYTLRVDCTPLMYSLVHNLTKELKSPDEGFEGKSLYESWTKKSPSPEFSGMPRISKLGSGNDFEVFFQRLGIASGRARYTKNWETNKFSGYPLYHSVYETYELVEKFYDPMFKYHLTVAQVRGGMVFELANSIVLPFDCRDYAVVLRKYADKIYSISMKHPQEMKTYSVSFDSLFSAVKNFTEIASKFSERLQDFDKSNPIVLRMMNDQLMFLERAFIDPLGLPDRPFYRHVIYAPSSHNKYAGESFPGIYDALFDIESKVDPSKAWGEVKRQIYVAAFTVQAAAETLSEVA

In the case of `O=C([O-])CN1CCN(CC(=O)[O-])CCN(CC(=O)NCC2CCC(C(=O)N[C@@H](Cc3ccc4ccccc4c3)C(=O)NCCCC[C@H](NC(=O)N[C@@H](CCC(=O)O)C(=O)O)C(=O)O)CC2)CCN(CC(=O)[O-])CC1.[Lu+3]` (stereo partly shown) [Lu-PSMA-617, reference compound], the Ki is reported as 0.24 ± 0.06 nM.
